Data as given in patent publication EP1034273B1, “HISTAMINE AND SEROTONIN BINDING MOLECULES” (Evolutec Limited, priority 1997, dated 1999).
Where two headings read alike, the source gives them in different places.

Columns and labels:
recombinant D.RET6 = molecular target: T1, recombinant D.RET6 (Dermacentor reticulatus, UniProt Q8WSK7); assay: Competitive binding assay: unlabelled ligands displacing radioactive histamine from recombinant D.RET6; settings: graphically derived from competitive binding curve (Figure 15), read-out: IC50 of the unlabelled ligands in displacing the radioactive histamine from the binding site by 50%
T1 sequence (Q8WSK7 18-209): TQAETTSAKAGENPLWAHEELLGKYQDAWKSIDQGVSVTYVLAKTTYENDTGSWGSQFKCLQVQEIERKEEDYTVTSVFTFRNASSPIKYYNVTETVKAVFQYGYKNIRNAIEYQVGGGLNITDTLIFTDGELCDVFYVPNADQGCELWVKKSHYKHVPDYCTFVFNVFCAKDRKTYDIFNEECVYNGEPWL
Description: (§1) The recombinant D.RET6 was diluted with 1.5% γ-globulin (Sigma) and used in one set of experiments. Fifty microlitres of the protein solution were incubated with 50 µl of 1:2500 dilution of [2,5-^3H] histamine diHCl (1µCi/µl) solution (Amersham) at room temperature for at least 3 hours with or without increasing concentrations of unlabelled histamine. All the assays were carried out in a total volume of 200 µl. The incubations were terminated by adding 125 µl of PEG 8000 (36% w/v in PBS) and centrifuged in a microfuge at maximum speed for 12 minutes to collect the bound protein. The tubes were spun once more to remove all supernatant without disturbing the pellets. Subsequently, pellets were redissolved in PBS. Three millilitres of liquid scintillation cocktail (Beckman) were added and the radioactivity measured using a liquid scintillation counter (Wallac, 1217 Rackbeta).
In a second set of experiments, a competitive binding assay was used to compare three unlabelled competitor ligands (histamine, 1-methylhistamine and 3-methylhistamine).

[1] = molecular target: recombinant D.RET6 (SEQ ID 4), Dermacentor reticulatus histamine-binding protein (Dermacentor reticulatus, UniProt Q8WSK7); assay: biochemical
Description: as §1
To study the effect of serotonin on histamine binding activity, 10 µl of PBS (as a control experiment) or 10 µl serotonin (50 µM or 500 µM) were added to each 200 µl binding assay.
For data analysis, the ligand affinity constant was estimated from Scatchard plots as previously described by Hulme, 1992, Receptor-Ligand Interactions, IRL Press, Oxford). The nonlinear regression was used to fit the data (Motulsky, 1987, FASEB J, 1: 365-374) and two asymtotic straight lines were made as described elsewhere (Feldman, 1972, Analytical Biochem 48: 317).

[2] = molecular target: Av-HBP (SEQ. ID. 6), semi-purified recombinant protein, Amblyomma variegatum; settings: read-out: equilibrium dissociation constant (Kd) for histamine; results not shown

Q: For `NCCc1c[nH]cn1` [histamine], which IC50 (recombinant D.RET6) is on record?
A: The IC50 was 133 nM.

Q: And the Kd ([1]; Kd, first (higher affinity) histamine binding site, final concentration of 2.38µM serotonin)?
A: Its Kd is 1.1 nM.

Q: What about the Kd ([1]; Kd, first (higher affinity) histamine binding site, no serotonin, approximate, from asymptotic lines of Scatchard plot) of the same compound?
A: The Kd was roughly 60 nM.

Q: And the Kd ([1]; Kd, first (higher affinity) histamine binding site, with 23.8µM serotonin)?
A: Its Kd is 1.3 nM.

Q: What about the “increase of binding affinity of D.RET6 for histamine” value ([1]; in the presence of serotonin versus no serotonin) of the same compound?
A: The value was “sixty-fold”.

Q: And the Kd ([1]; read-out: Kd, second (lower affinity) histamine binding site, final concentration of 2.38µM serotonin)?
A: The Kd was 1000 nM.

Q: What about the Kd ([1]; read-out: Kd, second (lower affinity) histamine binding site, no serotonin, approximate, from asymptotic lines of Scatchard plot) of the same compound?
A: The Kd was roughly 2000 nM.

Q: And the Kd ([1]; read-out: Kd, second (lower affinity) histamine binding site, with 23.8µM serotonin)?
A: The Kd was 1000 nM.

Q: And the Kd [2]?
A: Its Kd is roughly 7.3 nM.
